Each structure is given as a SMILES string.

These results are taken from paper PMC4009756, “In Vitro High Throughput Screening, What Next? Lessons from the Screening for Aurora Kinase Inhibitors” (Biology, 2014).

Common to all, as to type: biochemical
The target in assay [1] is T1, GCK "Germinal central kinase" (Homo sapiens, UniProt Q12851).
T1 construct: gene MAP4K2; recombinant kinase (BC047865)
T1 sequence (Q12851 1-820): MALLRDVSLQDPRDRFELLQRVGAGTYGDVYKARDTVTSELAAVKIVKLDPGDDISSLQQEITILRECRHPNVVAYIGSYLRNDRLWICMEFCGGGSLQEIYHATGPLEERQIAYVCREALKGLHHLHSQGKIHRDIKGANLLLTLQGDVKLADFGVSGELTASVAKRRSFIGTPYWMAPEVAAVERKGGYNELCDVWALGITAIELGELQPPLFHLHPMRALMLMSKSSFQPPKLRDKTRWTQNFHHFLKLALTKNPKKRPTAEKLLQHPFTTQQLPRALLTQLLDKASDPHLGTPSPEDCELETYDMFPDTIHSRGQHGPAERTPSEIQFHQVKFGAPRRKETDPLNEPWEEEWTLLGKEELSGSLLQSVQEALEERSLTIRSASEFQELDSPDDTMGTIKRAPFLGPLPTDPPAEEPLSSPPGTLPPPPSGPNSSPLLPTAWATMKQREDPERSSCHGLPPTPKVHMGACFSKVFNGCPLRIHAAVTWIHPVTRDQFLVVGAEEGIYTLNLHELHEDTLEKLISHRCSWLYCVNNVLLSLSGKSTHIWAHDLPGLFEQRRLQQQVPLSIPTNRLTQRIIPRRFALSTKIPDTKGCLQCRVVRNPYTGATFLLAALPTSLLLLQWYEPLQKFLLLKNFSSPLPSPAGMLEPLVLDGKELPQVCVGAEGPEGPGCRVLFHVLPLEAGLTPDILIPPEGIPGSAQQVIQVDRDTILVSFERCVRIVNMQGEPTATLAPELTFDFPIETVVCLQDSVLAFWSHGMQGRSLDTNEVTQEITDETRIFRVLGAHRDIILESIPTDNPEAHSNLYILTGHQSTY
As to the kind of experiment: in vitro kinase profiling (MRC Dundee), […], duplicate.

For assay [2], the target named is T2, Tak1 "Transforming growth factor beta activated kinase" (Homo sapiens, UniProt O43318).
T2 construct: gene MAP3K7; recombinant kinase (NM_003188)
T2 sequence (O43318 1-606): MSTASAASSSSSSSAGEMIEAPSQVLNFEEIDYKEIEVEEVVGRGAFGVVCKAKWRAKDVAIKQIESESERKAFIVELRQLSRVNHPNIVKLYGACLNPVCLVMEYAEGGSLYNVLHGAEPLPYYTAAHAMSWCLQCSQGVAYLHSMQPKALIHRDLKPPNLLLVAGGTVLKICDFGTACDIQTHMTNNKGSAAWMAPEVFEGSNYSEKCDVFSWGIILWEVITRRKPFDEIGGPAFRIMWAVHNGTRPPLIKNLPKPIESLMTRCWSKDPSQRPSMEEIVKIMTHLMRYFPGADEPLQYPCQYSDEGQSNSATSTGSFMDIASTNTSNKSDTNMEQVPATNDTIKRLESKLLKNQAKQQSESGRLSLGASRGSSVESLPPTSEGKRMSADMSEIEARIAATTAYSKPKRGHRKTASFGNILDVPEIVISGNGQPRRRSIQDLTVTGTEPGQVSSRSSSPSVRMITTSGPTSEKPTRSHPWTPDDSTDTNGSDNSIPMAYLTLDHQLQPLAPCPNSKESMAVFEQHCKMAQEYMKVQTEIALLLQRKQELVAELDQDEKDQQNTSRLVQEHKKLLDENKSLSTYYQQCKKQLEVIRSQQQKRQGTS
Described as above.

For assay [3], the target named is T3, NUAK1-ARK5 "SnF1-like Kinase" (Homo sapiens, UniProt O60285).
T3 construct: recombinant kinase (NM_014840)
T3 sequence (O60285 1-661): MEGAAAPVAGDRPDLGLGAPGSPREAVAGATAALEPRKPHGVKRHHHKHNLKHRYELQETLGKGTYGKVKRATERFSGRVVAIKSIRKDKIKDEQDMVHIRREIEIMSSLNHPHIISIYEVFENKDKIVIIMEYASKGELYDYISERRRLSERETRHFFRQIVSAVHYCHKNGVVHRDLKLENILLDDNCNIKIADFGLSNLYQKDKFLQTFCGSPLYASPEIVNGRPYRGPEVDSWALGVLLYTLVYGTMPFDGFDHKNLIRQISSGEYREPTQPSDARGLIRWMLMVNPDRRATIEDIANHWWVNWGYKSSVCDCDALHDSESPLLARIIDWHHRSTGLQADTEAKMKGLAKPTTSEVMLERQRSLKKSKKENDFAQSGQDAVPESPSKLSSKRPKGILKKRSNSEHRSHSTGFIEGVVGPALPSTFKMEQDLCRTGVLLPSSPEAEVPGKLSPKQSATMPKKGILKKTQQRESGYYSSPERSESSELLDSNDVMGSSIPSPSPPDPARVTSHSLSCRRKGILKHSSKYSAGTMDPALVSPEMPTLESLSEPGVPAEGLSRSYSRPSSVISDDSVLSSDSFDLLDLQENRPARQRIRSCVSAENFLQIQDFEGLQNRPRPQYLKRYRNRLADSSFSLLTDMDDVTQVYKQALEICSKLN
Described as above.

The target of assay [4] is T4, TrkA "Tropomyosin Related kinase A" (Homo sapiens, UniProt P04629).
T4 construct: gene NTRK1; recombinant kinase (NM_001007792.1)
The description is as above.

Assay [5] has as its target T5, aurora kinase A (Homo sapiens, UniProt O14965).
T5 construct: gene AURKA; recombinant kinase domain
T5 sequence (O14965 133-383 limits assumed): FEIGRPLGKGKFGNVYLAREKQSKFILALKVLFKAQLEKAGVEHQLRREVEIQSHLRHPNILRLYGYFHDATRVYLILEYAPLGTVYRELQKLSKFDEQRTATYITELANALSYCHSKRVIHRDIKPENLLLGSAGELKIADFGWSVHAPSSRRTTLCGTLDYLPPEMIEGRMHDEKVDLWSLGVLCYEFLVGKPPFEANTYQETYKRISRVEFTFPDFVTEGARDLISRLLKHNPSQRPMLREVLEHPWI
Kind of assay: in vitro histone H3 phosphorylation by recombinant kinase domain. Particulars: read-out: % inhibition at 1.5 μM.

T4 sequence (P04629 33-796): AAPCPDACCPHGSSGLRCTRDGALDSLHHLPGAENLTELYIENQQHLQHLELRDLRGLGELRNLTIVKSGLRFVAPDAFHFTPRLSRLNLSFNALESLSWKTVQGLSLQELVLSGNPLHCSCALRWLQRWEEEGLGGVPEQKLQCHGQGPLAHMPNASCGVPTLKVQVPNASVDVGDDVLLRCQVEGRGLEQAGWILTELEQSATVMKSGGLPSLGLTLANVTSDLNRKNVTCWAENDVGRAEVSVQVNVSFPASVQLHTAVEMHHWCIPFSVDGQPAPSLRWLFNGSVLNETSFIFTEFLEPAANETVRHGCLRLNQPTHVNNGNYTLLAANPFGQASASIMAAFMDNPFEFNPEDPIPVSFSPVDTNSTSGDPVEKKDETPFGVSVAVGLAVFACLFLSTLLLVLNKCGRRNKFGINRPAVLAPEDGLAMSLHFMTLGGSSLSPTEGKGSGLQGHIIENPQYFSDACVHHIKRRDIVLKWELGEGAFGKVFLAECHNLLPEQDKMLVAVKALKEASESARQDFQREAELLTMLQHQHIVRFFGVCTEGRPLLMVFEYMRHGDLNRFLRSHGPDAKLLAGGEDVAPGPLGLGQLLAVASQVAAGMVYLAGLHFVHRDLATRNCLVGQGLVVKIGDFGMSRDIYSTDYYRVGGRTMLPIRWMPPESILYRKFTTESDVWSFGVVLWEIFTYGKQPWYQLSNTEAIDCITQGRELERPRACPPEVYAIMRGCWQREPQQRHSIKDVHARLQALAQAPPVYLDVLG

As for `Cc1cncc2c1[nH]c1ccc3cc(OCCN(C)C)ccc3c12` [C2], the remaining activity at 1 µM in assay [1] came to 32 ± 1%; in assay [2], 55 ± 3%; in assay [3] it was 53 ± 2%; in assay [4] it was 36 ± 2%.
Regarding `O=c1cc(-c2ccc(O)cc2)oc2cc(O)cc(O)c12` [apigenin], in assay [5], the inhibition at 1.5 µM turned out to be 33%.
On the same count and under the same terms, the result for `O=c1cc(-c2ccc(O)c(O)c2)oc2cc(O)cc(O)c12` [luteonin] reads 50%.
